Experimental data: paper PMC2809102, “Two New Pimelic Diphenylamide HDAC Inhibitors Induce Sustained Frataxin Upregulation in Cells from Friedreich's Ataxia Patients and in a Mouse Model” (PLoS ONE, 2010)

Key:
FXN gene expression = tested on: FXN gene expression; parameters: method as in PMID 16921367, PMID 18463734; conditions: FRDA patient cells; cited from earlier work
[1] = Levels of compound in mouse brain and plasma after single injection; assay type: in vivo; conditions: single 150 mg/Kg injection
[2] = tested on: frataxin mRNA in KIKI splenocytes; assay: Fxn mRNA by qRT-PCR in unstimulated KIKI mouse splenocytes; assay type: cell-based; conditions: 10 µM, 48 hours
[3] = tested on: frataxin in brain and heart of wild-type mice; parameters: method as in PMID 16921367; conditions: cited from earlier work
[4] = tested on: frataxin mRNA in PBMC from FRDA patients; assay: FXN mRNA by quantitative real-time RT-PCR in unstimulated PBMC from FRDA patients; assay type: cell-based, human; conditions: 10 µM
[5] = tested on: frataxin mRNA in brain and heart of KIKI mice; assay: Fxn mRNA by qRT-PCR in brain and heart of KIKI mice after single subcutaneous injection; assay type: in vivo, mouse
[6] = tested on: FXN mRNA in healthy volunteers PBMCs; assay: FXN mRNA by qRT-PCR in PBMCs from healthy volunteers; assay type: cell-based, human; conditions: 10 µM, 48 h
[7] = tested on: histone acetylation H3K14 and H4K5 at fxn gene; assay: ChIP of H3K14 and H4K5 acetylation upstream of GAA repeat in KIKI mouse brain; assay type: in vivo; conditions: KIKI mice, 50 or 150 mg/kg s.c.

SMILES: CC(/C=C/C(=O)NO)=C\[C@@H](C)C(=O)c1ccc(N(C)C)cc1 [TSA, trichostatin A]
- effect on FXN gene expression (FXN gene expression): inactive

SMILES: Cc1ccc(C(=O)NCCCCCC(=O)Nc2ccccc2N)cc1 [compound 109]
- time to total elimination from brain and plasma [1]: < 4 h

SMILES: Cc1ccc(NC(=O)CCCCCC(=O)Nc2ccccc2N)cc1 [compound 106, N ^1-(2-aminophenyl)-N ^7-p-tolylheptanediamide, reference compound]
- frataxin mRNA upregulation in mouse splenocytes [2]: significant
- frataxin upregulation in brain and heart of wild-type mice [3]: no frataxin upregulation
- increase of frataxin mRNA levels, average ([4]; 48-hour incubation, average of patients, DMSO = 1): 3.6 fold

SMILES: O=C(CCCCCCC(=O)Nc1ccccc1)NO [SAHA, suberoylanilide hydroxamic acid]
- effect on FXN gene expression (FXN gene expression): inactive

SMILES: Cc1ccc(C(=O)NCCCCCC(=O)Nc2ccc(F)cc2N)cc1 [compound 136]
- frataxin mRNA upregulation in mouse splenocytes [2]: significant
- frataxin mRNA in brain ([5]; single s.c. 150 mg/kg, 24 hours after injection): increase in frataxin mRNA in the brain to wild-type levels
- Fxn mRNA in heart ([5]; single s.c. dose, only at 50 or 150 mg/kg (not 5, 15), p = 0.009 and 0.008): significantly increased
- Fxn mRNA in brain ([5]; single s.c. dose, only at 50 or 150 mg/kg (not 5, 15), p<0.001): significantly increased
- FXN mRNA in healthy volunteers PBMCs [6]: not overall significantly affected
- FXN mRNA trend in healthy volunteers PBMCs ([6]; non-significant): trend toward downregulation
- effect on frataxin mRNA ([4]; 48 h, compared to 10 µM compound 106): limited effect
- histone acetylation H3K14 and H4K5 upstream of GAA repeat, brain [7]: increase in histone acetylation

SMILES: Nc1ccccc1NC(=O)CCCCCCC(=O)Nc1ccccc1 [BML-210]
- effect on FXN gene expression (FXN gene expression): relieve repression of the FXN gene
